# Results taken from PubChem BioAssay (NCI).
# “And” between values parts separate entries of the source, which are not always exact repeats. Equal entries are not always repeated.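 96-well plates; 48 h exposure; 5 concentrations. Endpoints by linear interpolation between flanking doses. Not reached: highest tested concentration assigned. GI50 is the concentration that inhibits growth by half. TGI: total growth inhibition.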
# Experiments:
# Assay in all cases: NCI anticancer screen, dose series, 48 h
# SR leukemia = system: SR leukemia
# RXF 393 renal = system: RXF 393 renal
# OVCAR-4 ovarian = system: OVCAR-4 ovarian
# CCRF-CEM leukemia = system: CCRF-CEM leukemia
# K-562 leukemia = system: K-562 leukemia
# UO-31 renal = system: UO-31 renal
# HCC-2998 colon = system: HCC-2998 colon
# A498 renal = system: A498 renal
# CAKI-1 renal = system: CAKI-1 renal
# HCT-116 colon = system: HCT-116 colon
SMILES,TGI (SR leukemia),TGI (RXF 393 renal),TGI (OVCAR-4 ovarian),TGI (CCRF-CEM leukemia),TGI (K-562 leukemia),TGI (UO-31 renal),TGI (HCC-2998 colon),TGI (A498 renal),TGI (CAKI-1 renal),TGI (HCT-116 colon),GI50 (SR leukemia),GI50 (RXF 393 renal),GI50 (OVCAR-4 ovarian),GI50 (K-562 leukemia),GI50 (UO-31 renal),GI50 (HCC-2998 colon),GI50 (A498 renal),GI50 (CAKI-1 renal),GI50 (HCT-116 colon),GI50 (CCRF-CEM leukemia)
CS(=O)(=O)Nc1ccc2c(c1)oc(=O)c1ccccc12,> 100 µM,> 100 µM,> 100 µM,> 100 µM,> 100 µM,> 100 µM,> 100 µM,> 100 µM,> 100 µM,> 100 µM,,,,,,,,,,
C=C1C(=O)OC2CCN3CC=C(COC(=O)C(C)(O)C4(CO4)C1C)C23 (configuration not stated),> 100 µM,> 100 µM,> 100 µM,> 100 µM,> 100 µM,> 100 µM,> 100 µM,> 100 µM,> 100 µM,> 100 µM,,,,,,,,,,
C=C(CNCc1ccccc1)c1ccc(C(=O)Nc2ccccc2N)cc1,> 100 µM,24.1 µM,68.1 µM,,> 100 µM,18.2 µM,5.4 µM,7.83 µM,32.5 µM,> 100 µM,3.54 µM,1.87 µM,11.7 µM,2.58 µM,3.64 µM,2.22 µM,1.06 µM,5.35 µM,15 µM,
O=C1/C(=C/c2ccc(Br)cc2)COc2ccc(O)c(O)c21,> 100 µM,2.43 µM,2.59 µM,> 100 µM,> 100 µM,1.07 µM,3.03 µM,7.75 µM,2.25 µM,2.4 µM,0.452 µM,1.1 µM,1.31 µM,0.282 µM,0.307 µM,1.54 µM,2.97 µM,0.944 µM,0.892 µM,0.462 µM
O=C(Nc1ccc(Cl)cc1F)c1ccccc1O,> 100 µM,11.2 µM,> 100 µM,> 100 µM,> 100 µM,6.65 µM,13.1 µM,6.29 µM,13.6 µM,11.3 µM,5.73 µM,3.23 µM,2.75 µM,3.5 µM,1.25 µM,3.07 µM,2.22 µM,2.37 µM,3.15 µM,3.47 µM
Cc1cc([N+](=O)[O-])ccc1Nc1cccc(Cl)c1C,40.4 µM,34.5 µM,31.4 µM,47.2 µM,33.8 µM,24.4 µM,32.6 µM,29 µM,30.5 µM,29.6 µM,,,,,,,,,,
Cc1ccc(C)c(C2=C(c3cn(C)c4ccccc34)C(=O)NC2=O)c1,> 21 µM,> 25 µM,> 25 µM,> 25 µM,> 25 µM,> 25 µM,> 25 µM,> 22.8 µM,> 25 µM,> 25 µM,5.05 µM,5.93 µM,> 25 µM,15.1 µM,13.4 µM,> 25 µM,> 12.1 µM,> 23.4 µM,7.58 µM,5.42 µM
COc1cnc2c(c1)C(=O)c1c-2n(CCCNC(C)C)c(=O)c2cc(Cl)ccc12,0.464 µM,2.01 µM,2.7 µM,1.06 µM,2.13 µM,2.04 µM,2.85 µM,5.27 µM,2.15 µM,1.01 µM,0.0577 µM,0.568 µM,1.04 µM,0.451 µM,0.498 µM,1.37 µM,0.334 µM,0.0652 µM,0.138 µM,0.0419 µM
CC(C)N(C(=O)C12C3C4C5(C#N)C3C1(C#N)C5C42I)C(C)C (configuration not stated),38.2 µM,> 100 µM,> 100 µM,> 59.7 µM,> 59.4 µM,> 100 µM,> 100 µM,> 100 µM,> 100 µM,31.5 µM,,,,,,,,,,
CCN(CC)CCC(CNc1ccnc2cc(Cl)ccc12)c1ccc(OC)cc1 (configuration not stated),8.35 µM and 7.34 µM,15.6 µM and 5.16 µM,20.3 µM and 28.1 µM,55.9 µM and 28.7 µM,5.76 µM and 4.14 µM,4.35 µM and 11.6 µM,16.2 µM and 6.32 µM,13.4 µM and 14.1 µM,23.2 µM and 15.9 µM,24.7 µM and 14.4 µM,2.31 µM and 2.04 µM,3.5 µM and 2.26 µM,3.7 µM and 4.66 µM,1.79 µM and 1.19 µM,1.54 µM and 1.88 µM,3.5 µM and 2.44 µM,3.82 µM and 3.49 µM,5.85 µM and 2.54 µM,5.15 µM and 1.87 µM,13.1 µM and 2.77 µM
O=C(Nc1nc2ccc(C(F)(F)F)cc2s1)c1cc(Cl)ccc1O,20.1 µM,11.1 µM,> 100 µM,96.5 µM,> 100 µM,8.79 µM,73.6 µM,2.26 µM,,11 µM,1.24 µM,1.76 µM,1.87 µM,0.351 µM,1.19 µM,0.781 µM,0.309 µM,,0.414 µM,0.378 µM
CCCN=C(N)NC#N,77.2 µM,> 100 µM,> 100 µM,,> 100 µM,> 100 µM,> 100 µM,> 100 µM,> 100 µM,> 100 µM,,,,,,,,,,
O=C(CNc1ccc(Cl)cc1)Nc1ccc(-c2nc3ccccc3s2)cc1,> 24 µM,10.3 µM,19.4 µM,> 100 µM,> 100 µM,15.4 µM,4.24 µM,25 µM,20 µM,3.76 µM,1.43 µM,4.95 µM,2.78 µM,1.95 µM,4.03 µM,2.12 µM,12.5 µM,6.8 µM,1.74 µM,0.859 µM
COc1ccc(C(=O)C(c2ccc(OC)cc2)C2(O)C(=O)Nc3ccc([N+](=O)[O-])cc32)cc1 (configuration not stated),> 100 µM,> 100 µM,> 100 µM,> 100 µM,> 100 µM,> 100 µM,,31.5 µM,> 100 µM,> 100 µM,,,,,,,,,,
CCCCC(C(=O)C(=O)NC1C2CC3CC(C2)CC1C3)C(=O)C(C)C (configuration not stated),> 100 µM,> 100 µM,> 100 µM,> 100 µM,> 100 µM,> 100 µM,> 100 µM,> 100 µM,> 100 µM,> 100 µM,,,,,,,,,,
O=C(O)C1C2C=CC(O2)C1C(=O)NCc1ccccn1 (configuration not stated),> 100 µM,> 100 µM,> 100 µM,> 100 µM,> 100 µM,> 100 µM,,> 100 µM,> 100 µM,> 100 µM,,,,,,,,,,
O=C1c2cccc(NCCCNCCO)c2C(=O)c2cccc(NCCCNCCO)c21,6.25 µM and 7.33 µM,5.54 µM and 5.82 µM,2.59 µM and 6.09 µM,7.09 µM and 6.97 µM,18.8 µM and 8.27 µM,22.2 µM and 21.4 µM,2.4 µM and 2.13 µM,4.66 µM and 7.58 µM,,4.9 µM,2.56 µM and 0.532 µM,,0.747 µM and 2.55 µM,3.69 µM and 1.05 µM,,,,,,
CN(C)/C=N/c1nc2c(ncn2C2OC(CO)C(O)C2O)c(=O)[nH]1 (configuration not stated),> 100 µM,> 100 µM,> 100 µM,,> 100 µM,> 100 µM,> 100 µM,> 100 µM,> 100 µM,> 100 µM,,,,,,,,,,
Cn1c2c(c3ccccc31)C1CCCCCCC1C1C(=O)OC(=O)C21 (configuration not stated),87.4 µM,49 µM,> 100 µM,59 µM,75.3 µM,> 100 µM,70.3 µM,> 100 µM,,,,,,,,,,,,
S=C1NC2(CCCCCC2)NN1c1ccccc1,> 100 µM,,> 100 µM,> 64.9 µM,16.6 µM,> 100 µM,,> 100 µM,> 100 µM,,,,,,,,,,,
CC1(C)COC(c2cccnc2/C=N/O)=N1,> 100 µM,> 100 µM,> 100 µM,> 100 µM,> 100 µM,> 100 µM,,> 100 µM,> 100 µM,> 100 µM,,,,,,,,,,
[Cl][Hg][c]1cc(Br)cc(Br)c1,3.52 µM,2.85 µM,7.69 µM,4.22 µM,3.81 µM,15.5 µM,4.29 µM,8.01 µM,,13.4 µM,0.866 µM,1.45 µM,2.31 µM,1.12 µM,4.64 µM,2.08 µM,2.64 µM,,3.41 µM,1.32 µM
N#CC(N)(C(=O)CCC(=O)Nc1cccc(Cl)c1)c1ccc(Cl)cc1 (configuration not stated),> 100 µM,,> 100 µM,> 100 µM,> 100 µM,> 100 µM,,> 100 µM,> 100 µM,> 100 µM,,,,,,,,,,
NC(=Nc1c([N+](=O)[O-])cnc2ccccc12)N1CCOCC1,> 100 µM,,> 100 µM,> 100 µM,> 100 µM,> 100 µM,,> 100 µM,> 100 µM,> 100 µM,,,,,,,,,,
CO/N=C/c1cc(OC)c(OC)c(OC)c1,> 100 µM,,> 100 µM,> 100 µM,> 100 µM,> 100 µM,> 100 µM,> 100 µM,> 100 µM,> 100 µM,,,,,,,,,,
Cc1cc(CC(O)c2ccc(Cl)c(Cl)c2)nc(=O)[nH]1 (configuration not stated),> 100 µM,,> 100 µM,> 100 µM,> 100 µM,> 100 µM,,> 100 µM,90 µM,54.2 µM,,,,,,,,,,
C=C1C(=O)O[C@@H]2C[C@@H]1CC/C(C)=C/CC/C(C)=C/CC[C@@]2(C)O,3.58 µM,45.6 µM,> 100 µM,,17.3 µM,33.4 µM,28.7 µM,41.3 µM,23.7 µM,11.9 µM,1.63 µM,19.1 µM,34.6 µM,4.7 µM,16.3 µM,14 µM,23.4 µM,10.7 µM,3.06 µM,
